# Key:
# [1] = test system: Mouse embryonic fibroblasts (OG2-MEF; hemizygous for the Oct4-GFP transgene); assay: Reprogramming of mouse embryonic fibroblasts, Oct4-GFP colony count; format: cell-based
# Experimental: FIG. 1 is a process of screening mouse cell reprogramming factors using analog library screening of novel trans-3-indoleacrylic acid-based compounds. In order to screen low-molecular-weight compounds that promote the production of reprogrammed stem cells, mouse embryonic stem cells (OG2-MEF; hemizygous for the Oct4-GFP transgene) were transduced with reprogramming viruses (Oct4, Sox2, Klf4, and c-Myc). After 5 days, the cells were seeded on gelatin-coated plates and then cultured in mouse embryonic stem cell culture media containing each of low-molecular-weight compounds until colonies having a morphology similar to that of mouse embryonic stem cells were formed. After 15 days, the number of colonies expressing endogenous Oct4 GFP fluorescence was measured, and compounds that increased the efficiency of reprogramming compared to that of a control group were selected. […] Oct4 (O), Sox2 (S), Klf4 (K), and cMyc (M). FIG. 1B is a graph showing the increase in efficiency of reprogramming by RSC-133 and ID-558 among screened compounds. The values shown on the graph are mean values. The data are expressed as mean±SD (n=3).
# The OSKM reprogramming factor virus was produced according to the method of Example 3. […] At 15 days after the transfection, the number of either colonies showing AP activity or colonies expressing endogenous Oct4 GFP fluorescence was measured to determine the efficiency of reprogramming.
# To discover low-molecular-weight compounds that are involved in the reprogramming process, analog library screening of novel trans-3-indoleacrylic acid-based compounds was performed in mouse cells. Mouse embryonic fibroblasts (OG2-MEF: hemizygous for the Oct4-GFP transgene) were transfected with reprogramming viruses of Oct4, Sox2, Klf4 and c-Myc (OSKM), and after 5 days, the cells were seeded on gelatin-coated 12-well plates and incubated with mouse embryonic stem cell culture medium containing each of low-molecular-weight compounds until colonies having a morphology similar to that mouse stem cells were formed so that endogenous Oct4 GFP fluorescence was expressed (FIG. 1A). […]
# [2] = test system: H9 human embryonic stem cells; assay: Maintenance of undifferentiated state of hESC in unconditioned medium; format: cell-based
# Experimental: It was observed that, when H9 human embryonic stem cells (hESs) were cultured in unconditioned medium (UM), the differentiation thereof was induced, but when the cells were cultured in UM containing RSC-133, the degree of induced differentiation was inhibited, and pluripotency was acquired again. The efficiency of acquisition of pluripotency was measured by calculating the number of colonies showing AP activity. The values shown on the graph are mean values. The data are expressed as mean±SD (n=3) (*P<0.01, **P<0.005, by t-test).
# Human skin fibroblasts (hFFs) were used as a negative control group. H3 and GAPDH proteins were used as internal controls.
# Human embryonic stem cell (hESC) H9 (NIH Code, WA09; WiCell Research Institute, Madison, Wis.) and reprogrammed stem cells (hiPSC) were generally cultured in hESC culture medium (composed of 80% DMEM/F12, 20% knockout serum replacement (KSR, Invitrogen, Carlsbad, Calif.), 1% non-essential amino acids (NEAR, Invitrogen), 1 mM L-glutamine (Invitrogen), 0.1 mM β-mercaptoethanol (Sigma, St. Louis, Mo.) and 6 ng/ml bFGF (basic fibroblast growth factor, Invitrogen)) on γ-irradiated MEFs (mouse embryonic fibroblasts). The cells were subcultured with 1 mg/ml collagenase IV (Invitrogen) at intervals of 5-6 days. Human newborn foreskin fibroblasts (hFF, ATCC, catalog number CRL-2097; American Type Culture Collection, Manassas, Va.) were cultured in DMEM containing 10% FBS (fetal bovine serum, Invitrogen), 1% non-essential amino acid, 1 mM L-glutamine and 0.1 mM β-mercaptoethanol.
# When human embryonic stem cells (H9) are cultured in unconditioned medium (UM), their differentiation is induced. […] As a positive control group, embryonic stem cells cultured for 6 days in MEF-conditioned medium (CM) effective for maintenance of an undifferentiated state were used. The efficiency of maintenance of an undifferentiated state and inhibition of differentiation was determined by measuring the number of colonies showing AP activity (the lower panel of FIG. 28). […]
compound,measurement,setting,value
"NC(=O)c1cccc(NC(=O)/C=C/c2c[nH]c3ccccc23)c1 [RSC-133, 3-[3-(1H-indol-3-yl)-acrylamido]-benzamide]",efficiency of reprogramming (number of colonies expressing endogenous Oct4 GFP fluorescence),"[1]; OG2-MEF transfected with OSKM, after 15 days, compared to control group",showed the effect of increasing the efficiency of reprogramming
same,efficiency of reprogramming compared to reported compounds,"[1]; vs 5-Azacytidine, BIX-01294, VPA or increased MOI of OSKM virus (FIG. 2a)",greatly increased the efficiency of reprogramming
same,induced differentiation and pluripotency of hESC in unconditioned medium (AP-positive colonies),[2]; H9 cultured 6 days in UM supplemented with RSC-133 (FIG. 28),the degree of induced differentiation was inhibited and pluripotency was re-acquired
same,expression of Oct4 and H3K9ace (Western blot),[2]; H9 in UM containing RSC-133 vs CM (FIG. 29),at levels similar to those in the human embryonic stem cells cultured in CM
same,expression of pluripotency-specific markers Oct4 and Tra1-81 (immunostaining),[2]; H9 in UM supplemented with RSC-133 vs CM,expressed at levels similar to those of human embryonic stem cells cultured in CM
